Assay [1] addresses T1, BRD4 Bromodomain 2 (BRD4 BD2) (Homo sapiens, UniProt O60885).
T1 construct: 333-460 were cloned, expressed, and purified to homogeneity
Briefly: AlphaScreen binding assay, BRD4 BD2. The settings on record: His-tagged BRD4 BD2 100 nM, biotinylated H4 (1-21) K5/8/12/16 tetra-acetylated peptide 100 nM, compounds listed under IC50 range headings. The method, then: The binding of Example compounds to BRD4 Bromodomain 1 and BRD4 Bromodomain 2 was assessed using 384-well AlphaScreen assay technology. His-epitope tagged BRD4 BD144-168 and BRD4 BD2333-460 were cloned, expressed, and purified to homogeneity. BRD4 BD1 and BRD4 BD2 binding and inhibition was assessed by monitoring the engagement of biotinylated Histone H4 (1-21) K5/8/12/16 tetra-acetylated peptide with the targets using the AlphaScreen technology (PerkinElmer). Specifically, in a 384-well black or white flat bottom plate, BRD4 BD1 (50 nM final) or BRD4 BD2 (100 nM final) was combined with peptide (50 nM final for BD1 or 100 nM final for BD2) in 50 mM HEPES (pH 7.3), 100 mM NaCl, 0.1% (w/v) BSA, and 0.01% (w/v) Triton X-100 either in the presence of DMSO (final 1.25% DMSO) or compound dilution series in DMSO. Alpha streptavidin donor beads and Nickel-chelate acceptor beads were added to a final concentration of 10 μg/ml each. After a minimum of 1 hour equilibration, plates were read on a BMG PHERAstar FS multi-label reader (BMG LabTech). The half maximal inhibitory concentration (IC50) values were calculated using IDBS Activity Base software with a four parameter logistic curve fit by the equation y=A+((B−A)/(1+((C/x)^D))), wherein A denotes the bottom plateau of the curve, B denotes the top plateau of the curve, C denotes the x value at the middle of the curve, D denotes the slope factor, x denotes the original known x values, and y denotes the original known y values. Data was fitted using the Levenburg Marquardt algorithm.

In assay [2] the target is T2, BRD4 Bromodomain 1 (BRD4 BD1) (Homo sapiens, UniProt O60885).
T2 construct: 44-168 and BRD4 BD2
Briefly: AlphaScreen binding assay, BRD4 BD1. To be noted: His-tagged BRD4 BD1 50 nM, biotinylated H4 (1-21) K5/8/12/16 tetra-acetylated peptide 50 nM, compounds listed under IC50 range headings. Put shortly: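 An AlphaScreen competition format was used with His-BRD4 BD1 or BD2 and biotin-H4 K5/8/12/16-acetyl peptide, each at matched final levels of 50 nM (BD1) or 100 nM (BD2). Incubation in HEPES/NaCl buffer with 0.1% BSA and 0.01% Triton X-100 ran ≥1 h before IC50 determination.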
(In general: In Alpha technology, singlet oxygen from a donor bead excites a nearby acceptor bead.)

Usually IC50 stands for the concentration that gives 50% inhibition. The low end stands for higher potency, the high end for lower potency. `CC(=O)N1c2ccc(-c3ccc(S(C)(=O)=O)cc3)c(Oc3ccccc3)c2CCC1C` (racemic) [I-111, rac-1-(2-methyl-6-(4-(methylsulfonyl)phenyl)-5-phenoxy-3,4-dihydroquinolin-1(2H)-yl)ethanone]: the IC50 in assay [1] was less than 0.05 µM; in assay [2], 1 to 10 µM.

On to `CC(=O)N1c2cccc(Oc3ccccc3)c2CCC1C` (racemic) [I-112, rac-1-(2-methyl-5-phenoxy-3,4-dihydroquinolin-1(2H)-yl)ethanone], for which the IC50 is 0.05 to 0.5 µM in assay [1] and no less than 10 µM in assay [2].

Take `CC(=O)N1c2ccc(-c3cnn(CCO)c3)c(OCC(=O)N(C)C)c2CC[C@@H]1C` [I-2, (S)-2-(1-acetyl-6-(1-(2-hydroxyethyl)-1H-pyrazol-4-yl)-2-methyl-1,2,3,4-tetrahydroquinolin-5-yloxy)-N,N-dimethylacetamide]: the IC50 in assay [1] fell in the range of 0.05 to 0.5 µM; in assay [2], 1 to 10 µM.

As for `COC(=O)N1c2ccc(-c3cnn(CCO)c3)c(OCC(=O)N(C)C)c2CC[C@@H]1C` [I-3, (S)-methyl 5-(2-(dimethylamino)-2-oxoethoxy)-6-(1-(2-hydroxyethyl)-1H-pyrazol-4-yl)-2-methyl-3,4-dihydroquinoline-1(2H)-carboxylate], the IC50 in assay [1] fell in the range of 0.05 to 0.5 µM; in assay [2], 1 to 10 µM.

In the case of `CCNC(=O)COc1c(-c2cnn(C3CC3)c2)ccc2c1CC[C@H](C)N2C(C)=O` [I-4, (S)-2-(1-acetyl-6-(1-cyclopropyl-1H-pyrazol-4-yl)-2-methyl-1,2,3,4-tetrahydroquinolin-5-yloxy)-N-ethylacetamide], the values for the IC50 in assay [1] and in assay [2] were 0.05 to 0.5 µM and 1 to 10 µM, respectively.

On to `CC(=O)N1c2ccc(-c3cnn(C4CC4)c3)c(OCCF)c2CC[C@@H]1C` [I-5, (S)-1-(6-(1-cyclopropyl-1H-pyrazol-4-yl)-5-(2-fluoroethoxy)-2-methyl-3,4-dihydroquinolin-1(2H)-yl)ethanone], for which the IC50 in assay [1] was 0.05 to 0.5 µM; in assay [2], 1 to 10 µM.

As for `CC(=O)N1c2ccc(-c3cnn(C4CC4)c3)c(OCC(=O)N(C)C3CC3)c2CC[C@@H]1C` [I-6, (S)-2-(1-acetyl-6-(1-cyclopropyl-1H-pyrazol-4-yl)-2-methyl-1,2,3,4-tetrahydroquinolin-5-yloxy)-N-cyclopropyl-N-methylacetamide], the IC50 is no less than 0.5 µM in assay [1] and 1 to 10 µM in assay [2].

As to `COC(=O)N1c2ccc(-c3cnn(C4CC4)c3)c(OCC(F)(F)F)c2CC[C@@H]1C` [I-9, (S)-methyl 6-(1-cyclopropyl-1H-pyrazol-4-yl)-2-methyl-5-(2,2,2-trifluoroethoxy)-3,4-dihydroquinoline-1(2H)-carboxylate], the results for the IC50 in assay [1] and in assay [2] were no less than 0.5 µM and no less than 10 µM, respectively.

Regarding `COC(=O)N1c2ccc(-c3cnn(C4CC4)c3)c(OCC(F)F)c2CC[C@@H]1C` [I-10, (S)-methyl 6-(1-cyclopropyl-1H-pyrazol-4-yl)-5-(2,2-difluoroethoxy)-2-methyl-3,4-dihydroquinoline-1(2H)-carboxylate], the IC50 in assay [1] lay in the range of 0.05 to 0.5 µM; in assay [2], 1 to 10 µM.

In the case of `COC(=O)N1c2ccc(-c3cnn(C4CC4)c3)c(OCC(C)(F)F)c2CC[C@@H]1C` [I-12, (S)-methyl 6-(1-cyclopropyl-1H-pyrazol-4-yl)-5-(2,2-difluoropropoxy)-2-methyl-3,4-dihydroquinoline-1(2H)-carboxylate], the values for the IC50 in assay [1] and in assay [2] were no less than 0.5 µM and no less than 10 µM, respectively.

`COC(=O)N1c2ccc(-c3cnn(C4CC4)c3)c(OC(CF)CF)c2CC[C@@H]1C` [I-15, (S)-methyl 6-(1-cyclopropyl-1H-pyrazol-4-yl)-5-(1,3-difluoropropan-2-yloxy)-2-methyl-3,4-dihydroquinoline-1(2H)-carboxylate]: the results for the IC50 in assay [1] and in assay [2] were 0.05 to 0.5 µM and 1 to 10 µM, respectively.

On to `COC(=O)N1c2ccc(-c3cnn(C4CC4)c3)c(OCC(C)(C)F)c2CC[C@@H]1C` [I-16, (S)-methyl 6-(1-cyclopropyl-1H-pyrazol-4-yl)-5-(2-fluoro-2-methylpropoxy)-2-methyl-3,4-dihydroquinoline-1(2H)-carboxylate], for which the IC50 is 0.05 to 0.5 µM in assay [1] and 1 to 10 µM in assay [2].

Take `COC(=O)N1c2ccc(-c3cnn(C4CC4)c3)c(OC(C)(C)C(N)=O)c2CC[C@@H]1C` [I-18, (S)-methyl 5-(1-amino-2-methyl-1-oxopropan-2-yloxy)-6-(1-cyclopropyl-1H-pyrazol-4-yl)-2-methyl-3,4-dihydroquinoline-1(2H)-carboxylate]: the values for the IC50 in assay [1] and in assay [2] were 0.05 to 0.5 µM and 1 to 10 µM, respectively.

For `CCNC(=O)COc1c(-c2cnn(C3CC3)c2)ccc2c1CC[C@H](C)N2C(=O)OC` [I-21, (S)-methyl 6-(1-cyclopropyl-1H-pyrazol-4-yl)-5-(2-(ethylamino)-2-oxoethoxy)-2-methyl-3,4-dihydroquinoline-1(2H)-carboxylate], the figures for the IC50 in assay [1] and in assay [2] were 0.05 to 0.5 µM and no less than 10 µM, respectively.

`COC(=O)N1c2ccc(-c3cnn(C4CC4)c3)c(OCCN3CCCC3=O)c2CC[C@@H]1C` [I-25, (S)-methyl 6-(1-cyclopropyl-1H-pyrazol-4-yl)-2-methyl-5-(2-(2-oxopyrrolidin-1-yl)ethoxy)-3,4-dihydroquinoline-1(2H)-carboxylate]: the IC50 in assay [1] lay in the range of 0.05 to 0.5 µM; in assay [2], 1 to 10 µM.

For `COC(=O)N1c2ccc(-c3cnn(C4CC4)c3)c(OCC(=O)N3CCOCC3)c2CC[C@@H]1C` [I-26, (S)-methyl 6-(1-cyclopropyl-1H-pyrazol-4-yl)-2-methyl-5-(2-morpholino-2-oxoethoxy)-3,4-dihydroquinoline-1(2H)-carboxylate], the IC50 in assay [1] was in the range of 0.05 to 0.5 µM; in assay [2], 1 to 10 µM.

Take `COC(=O)N1c2ccc(-c3cnn(C4CC4)c3)c(OCCN3CCCS3(=O)=O)c2CC[C@@H]1C` [I-27, methyl (2S)-6-(1-cyclopropyl-1H-pyrazol-4-yl)-5-[2-(1,1-dioxo-1λ^6,2-thiazolidin-2-yl)ethoxy]-2-methyl-1,2,3,4-tetrahydroquinoline-1-carboxylate]: the 50% inhibitory concentration (IC50) in assay [1] was less than 0.05 µM; in assay [2], 1 to 10 µM.

On to `COC(=O)N1c2ccc(-c3cnn(C4CC4)c3)c(OCS(N)(=O)=O)c2CC[C@@H]1C` [I-28, (S)-methyl 6-(1-cyclopropyl-1H-pyrazol-4-yl)-2-methyl-5-(sulfamoylmethoxy)-3,4-dihydroquinoline-1(2H)-carboxylate], for which the IC50 is no less than 0.5 µM in assay [1] and 1 to 10 µM in assay [2].

`COC(=O)N1c2ccc(-c3cnn(C4CC4)c3)c(OCC3(CO)COC3)c2CC[C@@H]1C` [I-32, (S)-methyl 6-(1-cyclopropyl-1H-pyrazol-4-yl)-5-((3-(hydroxymethyl)oxetan-3-yl)methoxy)-2-methyl-3,4-dihydroquinoline-1(2H)-carboxylate]: the IC50 in assay [1] fell in the range of 0.05 to 0.5 µM; in assay [2], 1 to 10 µM.

Consider `COC(=O)N1c2ccc(-c3cnn(C4CC4)c3)c(OC3CC(F)(F)C3)c2CC[C@@H]1C` [I-33, (S)-methyl 6-(1-cyclopropyl-1H-pyrazol-4-yl)-5-(3,3-difluorocyclobutoxy)-2-methyl-3,4-dihydroquinoline-1(2H)-carboxylate], for which the IC50 was no less than 0.5 µM in assay [1] and 1 to 10 µM in assay [2].

On to `CC(=O)N1c2ccc(-c3cnn(C4CC4)c3)c(OCC(C)(F)F)c2CC[C@@H]1C` [I-37, (S)-1-(6-(1-cyclopropyl-1H-pyrazol-4-yl)-5-(2,2-difluoropropoxy)-2-methyl-3,4-dihydroquinolin-1(2H)-yl)ethanone], for which the 50% inhibitory concentration (IC50) fell in the range of 0.05 to 0.5 µM in assay [1] and 1 to 10 µM in assay [2].

As for `CC(=O)N1c2ccc(-c3cnn(C4CC4)c3)c(OC(CF)CF)c2CC[C@@H]1C` [I-38, (S)-1-(6-(1-cyclopropyl-1H-pyrazol-4-yl)-5-(1,3-difluoropropan-2-yloxy)-2-methyl-3,4-dihydroquinolin-1(2H)-yl)ethanone], the results for the IC50 in assay [1] and in assay [2] were 0.05 to 0.5 µM and 1 to 10 µM, respectively.

As for `CC(=O)N1c2ccc(-c3cnn(C4CC4)c3)c(OC(C)(C)C(N)=O)c2CC[C@@H]1C` [I-40, (S)-2-(1-acetyl-6-(1-cyclopropyl-1H-pyrazol-4-yl)-2-methyl-1,2,3,4-tetrahydroquinolin-5-yloxy)-2-methylpropanamide], the IC50 lay within 0.05 to 0.5 µM in assay [1] and 1 to 10 µM in assay [2].

As for `CC(=O)N1c2ccc(-c3cnn(C4CC4)c3)c(OCCC(F)(F)F)c2CC[C@@H]1C` [I-41, (S)-1-(6-(1-cyclopropyl-1H-pyrazol-4-yl)-2-methyl-5-(3,3,3-trifluoropropoxy)-3,4-dihydroquinolin-1 (2H)-yl)ethanone], the figures for the IC50 in assay [1] and in assay [2] were 0.05 to 0.5 µM and 1 to 10 µM, respectively.

These data come from US10611750B2, “Tetrahydroquinoline compositions as bet bromodomain inhibitors” (FORMA Therapeutics, Inc., priority 2013, dated 2020).
